Experimental data taken from patent US7776833B2, “Use of cyclic bioisosters of purine system derivatives for treating diseases produced by disorders of niterergic and dopaminergic systems” (priority 2003, dated 2010).

Legend:
Type in all cases: in vivo, Wistar rats
[1] = system: physical dependence from morphine (morphine abstinence); experiment: Morphine abstinence syndrome, signs scored in the open field test; details: Morphine − (morphine + compound); compound 3 x 20 mg/kg intramuscularly; one value for the three compounds
[2] = system: nitric oxide synthase (NOS); experiment: Nitric oxide synthase activity in brain regions, radiometric [3H]L-citrulline method; details: 3 x 20 mg/kg intramuscularly
Summary of the method: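 Rat cortex, hippocampus, mesencephalon, striatum, brainstem, hypothalamus and cerebellum were homogenized in 20 mM HEPES pH 7.5, and the 11000 g supernatant was incubated 15-60 min at 37 °C with [3H]L-arginine, 0.2 mM CaCl2, FAD, FMN, NADPH and BH4. [3H]L-citrulline was counted after Dowex removal of arginine. Ca2+-dependent/independent activity was split using EDTA ± L-NAME, per mg Bradford protein.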

[3] = system: nitrites and nitrates (NOx-); experiment: Measurement of nitrates/nitrites (NOx-) in brain regions after the morphine abstinence experiment; details: 3 x 20 mg/kg intramuscularly
Summary of the method: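 Rat brain regions homogenized in 20 mM HEPES pH 7.5 at 4 °C; deproteinized supernatants treated with nitrate reductase, 25 μM NADPH, 25 μM FAD (37 °C, 30 min), then DAN in acid; naphthotriazole fluorescence (ex 365/em 405 nm) against sodium nitrate standard, expressed as nmol/mg protein (Bradford).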

[4] = Groups Nos. 3-14, compound without morphine, one value for all 12 compounds
[5] = Morphine + compound, one value for the three compounds

## O=c1[nH]n([C@@H]2O[C@H](CO)[C@@H](O)[C@H]2O)c(=O)c2nc(Br)ncc12.[Na] [Compound 32, sodium salt of 2-bromine-7-(β-D-ribofuranosile)pyrimido[4,5-d]-6H-pyridazine-5,8-dione]
[1]
  Authentic differences (ξ-square criterion) in appearance of signs of abstinence: <<Wet dog>> shakes: 1.0000
  Authentic differences (ξ-square criterion) in appearance of signs of abstinence: Aggression: 0.8456
  Authentic differences (ξ-square criterion) in appearance of signs of abstinence: Convulsions: 0.5578
  Authentic differences (ξ-square criterion) in appearance of signs of abstinence: Diarrhea: 0.0001
  Authentic differences (ξ-square criterion) in appearance of signs of abstinence: Dyspnea: 0.0685
  Authentic differences (ξ-square criterion) in appearance of signs of abstinence: Forelimb jogging: 0.9321
  Authentic differences (ξ-square criterion) in appearance of signs of abstinence: Grit with teeth: 0.7003
  Authentic differences (ξ-square criterion) in appearance of signs of abstinence: Mastication: 0.1888
  Authentic differences (ξ-square criterion) in appearance of signs of abstinence: Piloerection: 0.2345
  Authentic differences (ξ-square criterion) in appearance of signs of abstinence: Ptosis: 0.0232
  Authentic differences (ξ-square criterion) in appearance of signs of abstinence: Rhinorrhea: 0.2935
  Authentic differences (ξ-square criterion) in appearance of signs of abstinence: Squeak when touched: 0.2035
[2]; [4]
  Activity of NOS, hippocampus: 3.09 ± 0.16 nmol/min/mg of protein
  Activity of NOS, hypothalamus: 5.45 ± 0.24 nmol/min/mg of protein
  Activity of NOS, midbrain: 2.60 ± 0.29 nmol/min/mg of protein
  Activity of NOS, striatum: 1.26 ± 0.08 nmol/min/mg of protein
[2]; [5]
  Activity of NOS, hippocampus: 2.65 ± 0.15 nmol/min/mg of protein
  Activity of NOS, hypothalamus: 5.56 ± 0.34 nmol/min/mg of protein
  Activity of NOS, midbrain: 1.89 ± 0.27 nmol/min/mg of protein
  Activity of NOS, striatum: 1.34 ± 0.09 nmol/min/mg of protein
[3]; [4]
  Nitrites, brainstem: 6.31 ± 0.58 nmol/mg of protein
  Nitrites, cerebellum: 6.66 ± 0.63 nmol/mg of protein
  Nitrites, cerebral cortex: 4.31 ± 0.37 nmol/mg of protein
  Nitrites, hippocampus: 6.47 ± 0.72 nmol/mg of protein
  Nitrites, hypothalamus: 6.77 ± 0.83 nmol/mg of protein
  Nitrites, midbrain: 6.65 ± 0.70 nmol/mg of protein
  Nitrites, striatum: 6.11 ± 0.29 nmol/mg of protein
[3]; [5]
  Nitrites, brainstem: 6.87 ± 0.81 nmol/mg of protein
  Nitrites, cerebellum: 5.93 ± 0.54 nmol/mg of protein
  Nitrites, cerebral cortex: 4.84 ± 0.31 nmol/mg of protein
  Nitrites, hippocampus: 5.31 ± 0.33 nmol/mg of protein
  Nitrites, hypothalamus: 6.77 ± 0.46 nmol/mg of protein
  Nitrites, midbrain: 5.95 ± 0.52 nmol/mg of protein
  Nitrites, striatum: 3.57 ± 0.42 nmol/mg of protein

## O=C([O-])c1cnc2c(=O)[nH]n([C@@H]3O[C@H](CO)[C@@H](O)[C@H]3O)c(=O)c2n1.O=C([O-])c1cnc2c(=O)[nH]n([C@@H]3O[C@H](CO)[C@@H](O)[C@H]3O)c(=O)c2n1.[Na+].[Na+] [Compound 24, disodium salt of 2-carboxy-7-(β-D-ribofuranosile)pyrazino[2,3-d]-6H-pyridazine-5,8-dione]
[1]
  Authentic differences (ξ-square criterion) in appearance of signs of abstinence: <<Wet dog>> shakes: 0.7821
  Authentic differences (ξ-square criterion) in appearance of signs of abstinence: Aggression: 0.7921
  Authentic differences (ξ-square criterion) in appearance of signs of abstinence: Convulsions: 0.3456
  Authentic differences (ξ-square criterion) in appearance of signs of abstinence: Diarrhea: 0.0067
  Authentic differences (ξ-square criterion) in appearance of signs of abstinence: Dyspnea: 0.0567
  Authentic differences (ξ-square criterion) in appearance of signs of abstinence: Forelimb jogging: 0.6745
  Authentic differences (ξ-square criterion) in appearance of signs of abstinence: Grit with teeth: 0.2994
  Authentic differences (ξ-square criterion) in appearance of signs of abstinence: Mastication: 0.1975
  Authentic differences (ξ-square criterion) in appearance of signs of abstinence: Piloerection: 0.2567
  Authentic differences (ξ-square criterion) in appearance of signs of abstinence: Ptosis: 0.0105
  Authentic differences (ξ-square criterion) in appearance of signs of abstinence: Rhinorrhea: 0.2131
  Authentic differences (ξ-square criterion) in appearance of signs of abstinence: Squeak when touched: 0.1968
[2]; [4]
  Activity of NOS, hippocampus: 3.09 ± 0.16 nmol/min/mg of protein
  Activity of NOS, hypothalamus: 5.45 ± 0.24 nmol/min/mg of protein
  Activity of NOS, midbrain: 2.60 ± 0.29 nmol/min/mg of protein
  Activity of NOS, striatum: 1.26 ± 0.08 nmol/min/mg of protein
[2]; [5]
  Activity of NOS, hippocampus: 2.33 ± 0.11 nmol/min/mg of protein
  Activity of NOS, hypothalamus: 5.47 ± 0.32 nmol/min/mg of protein
  Activity of NOS, midbrain: 2.03 ± 0.31 nmol/min/mg of protein
  Activity of NOS, striatum: 1.21 ± 0.10 nmol/min/mg of protein
[3]; [4]
  Nitrites, brainstem: 6.31 ± 0.58 nmol/mg of protein
  Nitrites, cerebellum: 6.66 ± 0.63 nmol/mg of protein
  Nitrites, cerebral cortex: 4.31 ± 0.37 nmol/mg of protein
  Nitrites, hippocampus: 6.47 ± 0.72 nmol/mg of protein
  Nitrites, hypothalamus: 6.77 ± 0.83 nmol/mg of protein
  Nitrites, midbrain: 6.65 ± 0.70 nmol/mg of protein
  Nitrites, striatum: 6.11 ± 0.29 nmol/mg of protein
[3]; [5]
  Nitrites, brainstem: 7.07 ± 0.85 nmol/mg of protein
  Nitrites, cerebellum: 5.76 ± 0.49 nmol/mg of protein
  Nitrites, cerebral cortex: 4.62 ± 0.27 nmol/mg of protein
  Nitrites, hippocampus: 5.27 ± 0.41 nmol/mg of protein
  Nitrites, hypothalamus: 6.87 ± 0.75 nmol/mg of protein
  Nitrites, midbrain: 5.99 ± 0.58 nmol/mg of protein
  Nitrites, striatum: 3.57 ± 0.42 nmol/mg of protein

## O=c1[nH]n([C@@H]2O[C@H](CO)[C@@H](O)[C@H]2O)c(=O)c2ncccc12.[Na] [Compound 1, sodium salt of 7-(β-D-ribofuranosile)pyrido[2,3-d]-6H-pyridazine-5,8-dione]
[1]
  Authentic differences (ξ-square criterion) in appearance of signs of abstinence: <<Wet dog>> shakes: 1.0000
  Authentic differences (ξ-square criterion) in appearance of signs of abstinence: Aggression: 0.8327
  Authentic differences (ξ-square criterion) in appearance of signs of abstinence: Convulsions: 0.7821
  Authentic differences (ξ-square criterion) in appearance of signs of abstinence: Diarrhea: 0.0046
  Authentic differences (ξ-square criterion) in appearance of signs of abstinence: Dyspnea: 0.0722
  Authentic differences (ξ-square criterion) in appearance of signs of abstinence: Forelimb jogging: 0.7821
  Authentic differences (ξ-square criterion) in appearance of signs of abstinence: Grit with teeth: 0.7144
  Authentic differences (ξ-square criterion) in appearance of signs of abstinence: Mastication: 0.1888
  Authentic differences (ξ-square criterion) in appearance of signs of abstinence: Piloerection: 0.1847
  Authentic differences (ξ-square criterion) in appearance of signs of abstinence: Ptosis: 0.0201
  Authentic differences (ξ-square criterion) in appearance of signs of abstinence: Rhinorrhea: 0.3017
  Authentic differences (ξ-square criterion) in appearance of signs of abstinence: Squeak when touched: 0.1888
[2]; [4]
  Activity of NOS, hippocampus: 3.09 ± 0.16 nmol/min/mg of protein
  Activity of NOS, hypothalamus: 5.45 ± 0.24 nmol/min/mg of protein
  Activity of NOS, midbrain: 2.60 ± 0.29 nmol/min/mg of protein
  Activity of NOS, striatum: 1.26 ± 0.08 nmol/min/mg of protein
[2]; [5]
  Activity of NOS, hippocampus: 2.70 ± 0.14 nmol/min/mg of protein
  Activity of NOS, hypothalamus: 5.26 ± 0.28 nmol/min/mg of protein
  Activity of NOS, midbrain: 1.83 ± 0.23 nmol/min/mg of protein
  Activity of NOS, striatum: 1.24 ± 0.08 nmol/min/mg of protein
[3]; [4]
  Nitrites, brainstem: 6.31 ± 0.58 nmol/mg of protein
  Nitrites, cerebellum: 6.66 ± 0.63 nmol/mg of protein
  Nitrites, cerebral cortex: 4.31 ± 0.37 nmol/mg of protein
  Nitrites, hippocampus: 6.47 ± 0.72 nmol/mg of protein
  Nitrites, hypothalamus: 6.77 ± 0.83 nmol/mg of protein
  Nitrites, midbrain: 6.65 ± 0.70 nmol/mg of protein
  Nitrites, striatum: 6.11 ± 0.29 nmol/mg of protein
[3]; [5]
  Nitrites, brainstem: 6.57 ± 0.72 nmol/mg of protein
  Nitrites, cerebellum: 5.46 ± 0.44 nmol/mg of protein
  Nitrites, cerebral cortex: 4.72 ± 0.37 nmol/mg of protein
  Nitrites, hippocampus: 5.44 ± 0.43 nmol/mg of protein
  Nitrites, hypothalamus: 6.57 ± 0.88 nmol/mg of protein
  Nitrites, midbrain: 5.50 ± 0.48 nmol/mg of protein
  Nitrites, striatum: 3.57 ± 0.42 nmol/mg of protein
